Results from patent US12594261B2, “Use of heterocyclic derivatives with cardiomyocyte proliferation activity for treatment of heart diseases” (SHANGHAI EAST HOSPITAL (EAST HOSPITAL, TONGJI UNIVERSITY …, priority 2019, dated 2026).

Tested on: neonatal rat ventricular myocytes (NRVMs)
Experiment: Myocyte proliferation assay (EdU) in neonatal rat ventricular myocytes
Format: cell-based
Details: Rattus norvegicus, Ventricular myocyte, growth relative to blank myocyte growth without compound added; for activation at 1 µM: 1 uM compound; for activation at 3 µM: 3 uM compound; for activation at 10 µM: 10 uM compound
Description: 1. Isolation of and Culture Neonatal Rat Ventricular Myocytes (NRVMs)
Ventricles from neonatal rats were separated from the atria, cut into small pieces (about 2×2 mm^2) and then dissociated in Ca^2+-free HBSS containing 0.125 mg ml-1 trypsin (Gibco), 10 μg ml-1 DNase II (Sigma) and 0.1 mg ml-1 collagenase type IV (Sigma). The digestion was carried out under constant stirring at 37° C. for 5 min. The supernatant was collected with FBS (Gibco) after each digestion period. After digestion, the collected supernatant was centrifuged at 1000 g for 10 min at room temperature, and then cell pellets were resuspended in DMEM (Gibco) supplemented with 10% FBS and with 100 uM 5-bromo-2′-deoxyuridine (Sigma). The resuspended cells were passed through a cell strainer ([…], BD Falcon) and seeded onto 100-mm plastic dishes for 2 h at 37° C. in a 5% CO2 to remove fibroblasts, the supernatant was then collected and plated onto 1% gelatin (Sigma)-coated dishes. 24 h after the seeding, the medium was changed to DMEM (Gibco) containing 2% FBS (Gibco), 1% insulin-transferrin-selenium (ITS; Gibco), 1% Penicillin-Streptomycin (Gibco). After 24 hours of low serum culture, remove the medium with DMEM (Gibco) containing 6% FBS (Gibco), 1% insulin-transferrin-selenium (ITS; Gibco), 1% Penicillin-Streptomycin (Gibco), different concentrations of compounds (the compounds were pre-diluted in the medium and the drug concentration was 10 uM, 3 uM, 1 uM, fully mixed). After 36 h add Edu substrate (Invitrogen) according to the manufacturer's guidelines, and then after 12 h cell can be used.
2.1. Immobilization: Remove the medium and fix the cells with […] in 200 ul (whichever is covered) for 15 min and wash the cells twice with 500 ul of PBS for 5 min each time.
2.2. Broken membrane: Add 200 ul of 0.3% Triton-X 100 (diluted in PBS) to each well, incubate for 10-15 min at room temperature (the time should not be too long), and wash the cells twice with 500 ul of PBS for 5 min each time.
2.3. Blocking: Add 200 ul of 10% normal goat serum (diluted with 0.1% PBST) to each well, incubate for 1 h at room temperature, and wash twice with 500 ul of 0.1% PBST for 5 min each time.
2.4. Primary antibody: dilute the primary antibody (abcam, ab8295) to blocking solution at a ratio of 1:200, add 100 ul per well, incubate for 1 h at room temperature (may be slightly longer than 2-3 h), wash the cells twice with 500 ul 0.1% PBST for 5 min each time.
2.5. Secondary antibody: Dilute the fluorescently labeled secondary antibody (abcam, ab150117) into blocking solution at a ratio of 1:200, add 100 ul per well, incubate for 1 h at room temperature (the time should not be too long), wash the cells twice with 0.1% PBST for 5 min each time, pay attention to the whole process. Protected from light.
2.6. Edu staining (Invitrogen C10338)
2.6.1 Prepare Click-iT® reaction cocktail according to Table 3. It was important to add the ingredients in the order listed in the table; otherwise, the reaction would not proceed optimally. Use the Click-iT® reaction cocktail within 15 minutes of preparation.
2.6.2 Add 0.1 mL of Click-iT® reaction cocktail to each well containing a coverslip. Rock the plate briefly to ensure that the reaction cocktail is distributed evenly over the coverslip.
2.6.3 Incubate the plate for 30 minutes at room temperature, protected from light.
2.6.4 Remove the reaction cocktail, then wash the cells twice with 0.1% PBST for 5 min each time.
2.7. DAPI staining: DAPI stain was diluted to PBS at a ratio of 1:1000, 100 ul per well, incubated for 30 min at room temperature, and the cells were washed twice with PBS for 5 min each.
We used Molecular Devices' Image Xpress Micro Confocal for high-throughput photo and data analysis.

Molecule `CN1C(=O)/C(=C/c2ccccc2)N=C1N` [TJU-B045, (4Z)-2-amino-1-methyl-4-(phenylmethylidene)-4,5-dihydro-1H-imidazol-5-one] has an activation at 1 µM of less than 10%, an activation at 3 µM of less than 10% and an activation at 10 µM of 10 to 50%.
Molecule `O=C1NC(NCCN2CCOCC2)=N/C1=C\c1ccc2c(c1)OC(F)(F)O2` [TJU-B066, (4Z)-4-[(2,2-difluoro-2H-1,3-benzodioxol-5-yl)methylidene]-2-{[2-(morpholin-4-yl)ethyl]amino}-4,5-dihydro-1H-imidazol-5-one] has an activation at 1 µM of 10 to 50%, an activation at 3 µM of less than 10% and an activation at 10 µM of less than 10%.
`O=C1NC(Nc2ccccc2)=N/C1=C\c1ccc2c(c1)OCCO2` [TJU-B007, (4Z)-4-[(2,3-dihydro-1,4-benzodioxin-6-yl)methylidene]-2-(phenylamino)-4,5-dihydro-1H-imidazol-5-one] gave an activation at 1 µM of less than 10%, an activation at 3 µM of 10 to 50% and an activation at 10 µM greater than 50%.
In the case of `CCNC1=N/C(=C\c2ccc3c(c2)OCO3)C(=O)N1` [TJU-B040, (4Z)-4-[(2H-1,3-benzodioxol-5-yl)methylidene]-2-(ethylamino)-4,5-dihydro-1H-imidazol-5-one], the activation at 1 µM is reported as 10 to 50%, the activation at 3 µM is reported as 10 to 50% and the activation at 10 µM is reported as 10 to 50%.
For `NC1=N/C(=C\c2cc3c(cc2Cl)OCO3)C(=O)N1` [TJU-B064, (4Z)-2-amino-4-[(6-chloro-2H-1,3-benzodioxol-5-yl)methylidene]-4,5-dihydro-1H-imidazol-5-one], the activation at 1 µM was less than 10%, the activation at 3 µM was less than 10% and the activation at 10 µM was less than 10%.
For `COc1cc(/C=C2\N=C(N)NC2=O)cc2c1OCO2` [TJU-B065, (4Z)-2-amino-4-[(7-methoxy-2H-1,3-benzodioxol-5-yl)methylidene]-4,5-dihydro-1H-imidazol-5-one], the activation at 1 µM was less than 10%, the activation at 3 µM was less than 10% and the activation at 10 µM was less than 10%.
`COc1cc(/C=C2\N=C(Nc3ccccc3)NC2=O)cc2c1OCO2` [TJU-B051, (4Z)-4-[(7-methoxy-2H-1,3-benzodioxol-5-yl)methylidene]-2-(phenylamino)-4,5-dihydro-1H-imidazol-5-one] gave an activation at 1 µM of less than 10%, an activation at 3 µM of less than 10% and an activation at 10 µM of 10 to 50%.
In the case of `COc1cccc(/C=C2\N=C(N)N(C)C2=O)c1` [TJU-B036, (4Z)-2-amino-4-[(3-methoxyphenyl)methylidene]-1-methyl-4,5-dihydro-1H-imidazol-5-one], the activation at 1 µM is reported as 10 to 50%, the activation at 3 µM is reported as less than 10% and the activation at 10 µM is reported as 10 to 50%.
With `Nc1ccc(NC2=N/C(=C\c3ccc4c(c3)OCO4)C(=O)N2)cc1` [TJU-B021, (4Z)-2-[(4-aminophenyl)amino]-4-[(2H-1,3-benzodioxol-5-yl)methylidene]-4,5-dihydro-1H-imidazol-5-one] the activation at 1 µM was less than 10%, the activation at 3 µM was less than 10% and the activation at 10 µM was greater than 50%.
`COc1ccc(/C=C2\N=C(Nc3ccccc3)NC2=O)cc1OC` [TJU-B085, (4Z)-4-[(3,4-dimethoxyphenyl)methylidene]-2-(phenylamino)-4,5-dihydro-1H-imidazol-5-one] was tested, and the activation at 1 µM was less than 10%, the activation at 3 µM was less than 10% and the activation at 10 µM was less than 10%.
In the case of `Cc1ccc(NC2=N/C(=C\c3ccc4c(c3)OCO4)C(=O)N2)cc1` [TJU-B110, (4Z)-4-[(2H-1,3-benzodioxol-5-yl)methylidene]-2-[(4-methylphenyl)amino]-4,5-dihydro-1H-imidazol-5-one], the activation at 1 µM is reported as 10 to 50%, the activation at 3 µM is reported as less than 10% and the activation at 10 µM is reported as less than 10%.
Work on `COc1ccccc1NC1=N/C(=C\c2ccc3c(c2)OCO3)C(=O)N1` [TJU-B254, (4Z)-4-[(2H-1,3-benzodioxol-5-yl)methylidene]-2-[(2-methoxyphenyl)amino]-4,5-dihydro-1H-imidazol-5-one] yielded an activation at 1 µM of less than 10%, an activation at 3 µM of less than 10% and an activation at 10 µM of less than 10%.
For `O=C1NC(Nc2cccnc2)=N/C1=C\c1ccc2c(c1)OCO2` [TJU-B031, (4Z)-4-[(2H-1,3-benzodioxol-5-yl)methylidene]-2-[(pyridin-3-yl)amino]-4,5-dihydro-1H-imidazol-5-one], the activation at 1 µM was less than 10%, the activation at 3 µM was less than 10% and the activation at 10 µM was 10 to 50%.
`O=C1NC(NCC2CC2)=N/C1=C\c1ccc2c(c1)OCO2` [TJU-B029, (4Z)-4-[(2H-1,3-benzodioxol-5-yl)methylidene]-2-[(cyclopropylmethyl)amino]-4,5-dihydro-1H-imidazol-5-one] showed an activation at 1 µM of less than 10%, an activation at 3 µM of less than 10% and an activation at 10 µM of 10 to 50%.
`O=C1NC(NCc2ccccc2)=N/C1=C\c1ccc2c(c1)OCO2` [TJU-B019, (4Z)-4-[(2H-1,3-benzodioxol-5-yl)methylidene]-2-(benzylamino)-4,5-dihydro-1H-imidazol-5-one] gave an activation at 1 µM of less than 10%, an activation at 3 µM of less than 10% and an activation at 10 µM greater than 50%.
`O=C1NC(Nc2ccc(Cl)cc2)=N/C1=C\c1ccc2c(c1)OCO2` [TJU-B060, (4Z)-4-[(2H-1,3-benzodioxol-5-yl)methylidene]-2-[(4-chlorophenyl)amino]-4,5-dihydro-1H-imidazol-5-one] showed an activation at 1 µM of less than 10%, an activation at 3 µM of less than 10% and an activation at 10 µM of less than 10%.
`O=C1NC(NCCN2CCOCC2)=N/C1=C\c1ccc2c(c1)OCO2` [TJU-B004, (4Z)-4-[(2H-1,3-benzodioxol-5-yl)methylidene]-2-{[2-(morpholin-4-yl)ethyl]amino}-4,5-dihydro-1H-imidazol-5-one] showed an activation at 1 µM of less than 10%, an activation at 3 µM of 10 to 50% and an activation at 10 µM greater than 50%.
For `CN1C(=O)/C(=C/c2ccc3c(c2)OCO3)N=C1N` [TJU-B057, (4Z)-2-amino-4-[(2H-1,3-benzodioxol-5-yl)methylidene]-1-methyl-4,5-dihydro-1H-imidazol-5-one], the activation at 1 µM was 10 to 50%, the activation at 3 µM was less than 10% and the activation at 10 µM was less than 10%.
Molecule `NC1=N/C(=C\c2ccc3c(c2)OCO3)C(=O)N1` [TJU-B034, (4Z)-2-amino-4-[(2H-1,3-benzodioxol-5-yl)methylidene]-4,5-dihydro-1H-imidazol-5-one] has an activation at 1 µM of less than 10%, an activation at 3 µM of less than 10% and an activation at 10 µM of 10 to 50%.
Work on `O=C1NC(Nc2ccc3c(c2)OCO3)=N/C1=C\c1ccc2c(c1)OCO2` [TJU-B027, (4Z)-2-[(2H-1,3-benzodioxol-5-yl)amino]-4-[(2H-1,3-benzodioxol-5-yl)methylidene]-4,5-dihydro-1H-imidazol-5-one] yielded an activation at 1 µM of less than 10%, an activation at 3 µM of less than 10% and an activation at 10 µM of 10 to 50%.
With `CC(C)NC1=N/C(=C\c2ccc3c(c2)OCO3)C(=O)N1C` [TJU-B016, (4Z)-4-[(2H-1,3-benzodioxol-5-yl)methylidene]-1-methyl-2-[(propan-2-yl)amino]-4,5-dihydro-1H-imidazol-5-one] the activation at 1 µM was less than 10%, the activation at 3 µM was 10 to 50% and the activation at 10 µM was greater than 50%.
`CC(C)NC1=N/C(=C\c2ccc3c(c2)OCO3)C(=O)N1` [TJU-B038, (4Z)-4-[(2H-1,3-benzodioxol-5-yl)methylidene]-2-[(propan-2-yl)amino]-4,5-dihydro-1H-imidazol-5-one] gave an activation at 1 µM of 10 to 50%, an activation at 3 µM of 10 to 50% and an activation at 10 µM of 10 to 50%.
Work on `CN1C(=O)/C(=C/c2ccc3c(c2)OCO3)N=C1Nc1ccc2c(c1)OCO2` [TJU-B088, (4Z)-2-[(2H-1,3-benzodioxol-5-yl)amino]-4-[(2H-1,3-benzodioxol-5-yl)methylidene]-1-methyl-4,5-dihydro-1H-imidazol-5-one] yielded an activation at 1 µM of 10 to 50%, an activation at 3 µM of less than 10% and an activation at 10 µM of less than 10%.
